In article PMC4774972, “Activity and Predicted Nephrotoxicity of Synthetic Antibiotics Based on Polymyxin B” (Journal of Medicinal Chemistry, 2016):
Numbered stars: 1 amine (or outer) side, 2 acyl side, 3 side chain; on linkers, the order of the positions; unused ones are H or OH. Bridge positions count the residues as written; N and C are the ends. Square brackets hold non-standard residues; d marks the D form. Peptide text beside a SMILES is read from it. * marks the point of attachment. NH(2-ClPh) = Clc1ccccc1N*; hSer = N[C@@H](CCO)C(=O)O; Octanoyl = CCCCCCCC(=O)*; Dab = NCC[C@H](N)C(=O)O; CO = O=C([*:1])[*:2]

Tests used:
[1] = system: P. aeruginosa FADDI-PA070, PmxR; conditions: MIC P. aeruginosa FADDI-PA070, PmxR (µg/mL)
[2] = system: P. aeruginosa PA9704, PmxR; conditions: MIC P. aeruginosa PA9704, PmxR (µg/mL)
[3] = system: K. pneumoniae CI Koprana 100650661:1, PmxR; conditions: MIC K. pneumoniae CI Koprana 100650661:1, PmxR (µg/mL)
[4] = system: A. baumannii CI Ptyela 100734512:2, PmxR; conditions: MIC A. baumannii CI Ptyela 100734512:2, PmxR (µg/mL)
[5] = system: S. aureus ATCC 25923, MSSA; conditions: MIC S. aureus ATCC 25923, MSSA (µg/mL)
[6] = system: K. pneumoniae CI 138-16357-20362, PmxR; conditions: MIC K. pneumoniae CI 138-16357-20362, PmxR (µg/mL)
HepG2 cells = assay: Cytotoxicity assay (resazurin assay); type: cell-based, human; conditions: 4000 cells/well, 24 h incubation with compound, fluorescence 560/590
Protocol: Cytotoxicity to HEK293 and HepG2 cells was determined using the resazurin assay.[67],[68] […] Compounds were then added into each well. After 24 h incubation, 5 μM resazurin was added per well and incubated at 37 °C for 2 h. Fluorescence intensity was then read using a Polarstar Omega with excitation/emission 560/590. The data were then analyzed using GraphPad Prism 6 software. CC50 values were determined using GraphPad Prism 6 software (Inc. La Jolla, CA).

[7] = system: A. baumannii CI Ptyela 100734512:2, PmxR; assay: microbe, parasite or virus in culture; type: cell-based, Acinetobacter baumannii; conditions: carbapenem & polymyxin resistant clinical isolate; MHB, 5 × 10^5 CFU/mL, 18 h at 37 °C
Protocol: (§1) Bacteria were either obtained from American Type Culture Collection (ATCC; Manassas, VA, USA) or independent academic clinical isolate collections, as listed in Table S2. Bacteria were cultured in nutrient broth (NB; Bacto Laboratories, catalog no. 234000) or Muller Hinton broth (MHB; Bacto Laboratories, catalog no. 211443) at 37 °C overnight with shaking (∼180 rpm). A sample of each culture was then diluted 50-fold in fresh MHB and incubated at 37 °C for 1.5–3 h with shaking (∼180 rpm). Compound stock solutions were prepared as 0.64 or 2.56 mg/mL in water. The compounds, at twice the final desired concentration, were serially diluted 2-fold across the wells of 96-well plates (Polystyrene, Corning, catalogue No. 3370). Mid log phase bacterial cultures (after 1.5–3 h incubation) were diluted to a final concentration of 5 × 10^5 colony forming units (CFU)/mL, and 50 μL was added to each well giving a final compound concentration range of 32 μg/mL to 0.015 μg/mL (128–0.06 μg/mL for colistin and polymyxin B against the polymyxin resistant clinical isolates). MICs were determined visually after 18 h of incubation at 37 °C, with the MIC defined as the lowest compound concentration at which no bacterial growth was visible.
(§2) Table S2. Bacterial strains used for Minimum Inhibitory Concentration (MIC) […]
(§3) Organism Strain Strain description Strain Source
(§4) Escherichia coli ATCC 25922 FDA strain Seattle 1946 ATCC
(§5) Klebsiella pneumoniae ATCC 13883 Control strain ATCC
(§6) Klebsiella pneumoniae ATCC 700603 Multi-drug resistant ATCC
(§7) Klebsiella pneumoniae BAA-2146 Metallo-beta-lactamase- ATCC
(§8) Acinetobacter baumannii ATCC 19606 Type strain ATCC
(§9) Pseudomonas aeruginosa ATCC 27853 Type strain ATCC
(§10) Pseudomonas aeruginosa FADDI-PA070 Clinical isolate, Nation and Li labs, polymyxin resistant Monash University
(§11) Clinical isolate, Wang Hengzhuang, Pseudomonas aeruginosa PA9704 polymyxin resistant University Hospital of […]
(§12) Ptyela Clinical isolate, Ilias Karaiskos and Acinetobacter baumannii Carbapenem & Helen Giamarellou
(§13) Clinical isolate, Medicine, Hygeia
(§14) Klebsiella pneumoniae Koprana Carbapenem, & General Hospital, […]
(§15) Clinical isolate, (Instituto Dante […]
(§16) polymyxin resistant Cardiologia, São […]

[8] = system: S. aureus ATCC 25923, MSSA; assay: microbe, parasite or virus in culture; type: cell-based, Staphylococcus aureus; conditions: MHB, 5 × 10^5 CFU/mL, read visually after 18 h at 37 °C
Protocol: as §1, §2, §3, §4, §5, §6, §7, §8, §9, §10, §11, §12, §13, §14, §15, §16

HepG2 = conditions: CC50 HepG2 (µM)
[9] = system: P. aeruginosa FADDI-PA070, PmxR; type: cell-based, Pseudomonas aeruginosa; conditions: polymyxin resistant clinical isolate; MHB, 5 × 10^5 CFU/mL, 18 h at 37 °C
Protocol: as §1, §2, §3, §4, §5, §6, §7, §8, §9, §10, §11, §12, §13, §14, §15, §16

[10] = system: K. pneumoniae CI Koprana 100650661:1, PmxR; assay: microbe, parasite or virus in culture; type: cell-based, Klebsiella pneumoniae; conditions: carbapenem & polymyxin resistant clinical isolate; MHB, 5 × 10^5 CFU/mL, 18 h at 37 °C
Protocol: as §1, §2, §3, §4, §5, §6, §7, §8, §9, §10, §11, §12, §13, §14, §15, §16

[11] = system: K. pneumoniae CI 138-16357-20362, PmxR; assay: microbe, parasite or virus in culture; type: cell-based, Klebsiella pneumoniae; conditions: carbapenem & polymyxin resistant clinical isolate; MHB, 5 × 10^5 CFU/mL, 18 h at 37 °C
Protocol: as §1, §2, §3, §4, §5, §6, §7, §8, §9, §10, §11, §12, §13, §14, §15, §16

P. aeruginosa ATCC 27853 = conditions: MIC P. aeruginosa ATCC 27853 (µg/mL)
A. baumannii ATCC 19606 = conditions: MIC A. baumannii ATCC 19606 (µg/mL)
E. coli ATCC 25922 = conditions: MIC E. coli ATCC 25922 (µg/mL)
[12] = system: K. pneumoniae ATCC 700603, MDR; conditions: MIC K. pneumoniae ATCC 700603, MDR(µg/mL)
K. pneumoniae ATCC 13883 = conditions: MIC K. pneumoniae ATCC 13883 (µg/mL)
[13] = system: K. pneumoniae ATTC BAA-2146, NDM-1 pos; conditions: MIC K. pneumoniae ATTC BAA-2146, NDM-1 pos (µg/mL)

Row | SMILES | MIC [1] [mg/L] | MIC [2] [mg/L] | MIC [3] [mg/L] | MIC [4] [mg/L] | MIC [5] [mg/L] | MIC [6] [mg/L] | HepG2 - CC50 (HepG2 cells) [µM] | MIC A. baumannii CI Ptyela 100734512:2, PmxR [7] [mg/L] | MIC S. aureus ATCC 25923, MSSA [8] [mg/L] | CC50 (HepG2) [µM] | MIC P. aeruginosa FADDI-PA070, PmxR [9] [mg/L] | MIC K. pneumoniae CI Koprana 100650661:1, PmxR [10] [mg/L] | MIC K. pneumoniae CI 138-16357-20362, PmxR [11] [mg/L] | MIC (P. aeruginosa ATCC 27853) [mg/L] | MIC (A. baumannii ATCC 19606) [mg/L] | MIC (E. coli ATCC 25922) [mg/L] | MIC [12] [mg/L] | MIC (K. pneumoniae ATCC 13883) [mg/L] | MIC [13] [mg/L]
1 | CCCCCCCC(=O)N[C@@H](CCN)C(=O)N[C@H](C(=O)N[C@@H](CCN)C(=O)N[C@H]1CCNC(=O)[C@H]([C@@H](C)O)NC(=O)[C@H](CCN)NC(=O)[C@H](CCN)NC(=O)[C@H](CC(C)C)NC(=O)[C@@H](Cc2ccccc2)NC(=O)[C@H](CCN)NC1=O)[C@@H](C)O [Compound 11, polymyxin B3] (Octanoyl-[Dab]T[Dab][Dab][Dab][dF]L[Dab][Dab]T; lactam 4-C) | > 32 | > 128 | > 128 | > 64 | > 128 | > 128 | >300 | >64 | >128 | > 300 | >32 | >128 | >128 | – | – | – | – | – | –
2 | CCCCCCCC(=O)N[C@@H](CCN)C(=O)N[C@H](C(=O)N[C@@H](CCN)C(=O)N[C@H]1CCNC(=O)[C@H]([C@@H](C)O)NC(=O)[C@H](CCN)NC(=O)[C@H](CCN)NC(=O)[C@H](CC(C)C)NC(=O)[C@@H](Cc2ccccc2)NC(=O)[C@H](CCNC(=O)[C@@H](N)CCC(=O)O)NC1=O)[C@@H](C)O [Compound 32] (Octanoyl-[Dab]T[Dab][Dab][Dab](Glu)[dF]L[Dab][Dab]T; lactam 4-C) | > 32 | > 32 | > 32 | > 32 | > 32 | > 32 | – | – | – | > 300 | – | >32 | >32 | > 32 | > 32 | > 32 | > 32 | > 32 | –
3 | CC(C)C[C@@H]1NC(=O)[C@@H](Cc2ccccc2)NC(=O)[C@H](CCN)NC(=O)[C@@H](NC(=O)[C@@H](CO)NC(=O)[C@@H](NC(=O)[C@H](CCN)NC(=O)Nc2ccccc2Cl)[C@@H](C)O)CCNC(=O)[C@H]([C@@H](C)O)NC(=O)[C@H](CCN)NC(=O)[C@H](CCN)NC1=O [Compound 17] ({NH(2-ClPh)-CO}-[Dab]T[dS][Dab][Dab][dF]L[Dab][Dab]T; lactam 4-C) | > 32 | > 32 | > 32 | > 32 | > 32 | > 32 | – | – | – | > 300 | – | >32 | >32 | – | > 32 | – | – | – | > 32
4 | CCCCCCCC(=O)N[C@@H](CCN)C(=O)N[C@H](C(=O)N[C@@H](CCN)C(=O)N[C@H]1CCNC(=O)[C@H]([C@@H](C)O)NC(=O)[C@H](CCN)NC(=O)[C@H](CCN)NC(=O)[C@H](CC(C)C)NC(=O)[C@@H](Cc2ccccc2)NC(=O)[C@H](CCO)NC1=O)[C@@H](C)O [Compound 33] (Octanoyl-[Dab]T[Dab][Dab][hSer][dF]L[Dab][Dab]T; lactam 4-C) | > 32 | > 32 | > 32 | > 32 | > 32 | > 32 | – | – | – | > 300 | – | >32 | >32 | > 32 | > 32 | – | > 32 | > 32 | –
